Target: mitochondrial complex I (Mus musculus, UniProt P03888+Q91WD5+Q9DC70)
Assay: polarography: oxygen consumption in cells with complex I-specific substrates
Type: cell-based

mitochondrial complex I, sequence (Q91VD9 24-727): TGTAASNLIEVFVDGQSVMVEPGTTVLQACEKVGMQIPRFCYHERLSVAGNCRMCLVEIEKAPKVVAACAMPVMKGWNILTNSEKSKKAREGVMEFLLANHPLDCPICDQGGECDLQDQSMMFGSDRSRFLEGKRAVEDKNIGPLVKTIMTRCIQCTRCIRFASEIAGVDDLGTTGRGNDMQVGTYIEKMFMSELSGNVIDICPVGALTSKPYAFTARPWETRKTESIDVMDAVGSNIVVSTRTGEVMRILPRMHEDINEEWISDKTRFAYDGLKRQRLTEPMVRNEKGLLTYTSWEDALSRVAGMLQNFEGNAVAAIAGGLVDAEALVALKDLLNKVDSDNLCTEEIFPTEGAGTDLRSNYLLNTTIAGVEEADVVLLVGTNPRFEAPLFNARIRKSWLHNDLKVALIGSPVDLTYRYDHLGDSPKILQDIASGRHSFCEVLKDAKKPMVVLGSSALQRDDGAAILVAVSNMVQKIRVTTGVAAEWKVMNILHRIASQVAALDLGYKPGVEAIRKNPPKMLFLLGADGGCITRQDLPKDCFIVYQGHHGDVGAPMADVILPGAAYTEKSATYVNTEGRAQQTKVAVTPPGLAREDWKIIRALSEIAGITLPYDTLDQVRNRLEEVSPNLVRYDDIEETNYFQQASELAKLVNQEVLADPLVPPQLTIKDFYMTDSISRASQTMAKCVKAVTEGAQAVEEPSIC
mitochondrial complex I, sequence (Q91WD5 34-463): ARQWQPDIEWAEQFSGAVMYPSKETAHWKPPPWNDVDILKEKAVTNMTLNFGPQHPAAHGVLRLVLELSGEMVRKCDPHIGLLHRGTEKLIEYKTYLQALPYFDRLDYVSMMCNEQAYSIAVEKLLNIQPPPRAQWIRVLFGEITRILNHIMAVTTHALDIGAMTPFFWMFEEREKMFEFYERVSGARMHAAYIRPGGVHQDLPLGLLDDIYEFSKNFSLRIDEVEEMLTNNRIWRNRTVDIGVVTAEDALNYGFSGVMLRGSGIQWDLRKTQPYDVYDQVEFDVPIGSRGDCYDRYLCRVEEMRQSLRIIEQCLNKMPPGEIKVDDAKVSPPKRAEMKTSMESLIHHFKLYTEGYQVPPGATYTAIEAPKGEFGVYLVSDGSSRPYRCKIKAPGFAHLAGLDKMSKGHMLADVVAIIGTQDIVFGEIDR
mitochondrial complex I, sequence (P03888 whole entry): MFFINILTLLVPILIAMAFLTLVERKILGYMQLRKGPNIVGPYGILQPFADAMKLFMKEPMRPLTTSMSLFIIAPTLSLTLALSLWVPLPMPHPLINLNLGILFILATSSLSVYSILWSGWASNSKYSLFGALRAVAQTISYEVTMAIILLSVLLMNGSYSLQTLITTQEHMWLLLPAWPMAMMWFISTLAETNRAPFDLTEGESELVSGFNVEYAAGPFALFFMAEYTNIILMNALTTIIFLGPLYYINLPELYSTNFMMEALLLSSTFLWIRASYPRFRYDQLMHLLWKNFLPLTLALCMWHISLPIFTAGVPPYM
mitochondrial complex I, sequence (Q9DC70 36-224): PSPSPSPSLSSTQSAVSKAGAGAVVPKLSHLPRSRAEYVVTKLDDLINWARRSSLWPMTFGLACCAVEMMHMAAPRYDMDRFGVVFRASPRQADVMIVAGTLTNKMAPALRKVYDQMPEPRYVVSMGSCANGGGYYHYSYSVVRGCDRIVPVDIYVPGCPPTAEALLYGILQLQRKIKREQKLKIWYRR
mitochondrial complex I, sequence (Q91YT0 21-464, further chain): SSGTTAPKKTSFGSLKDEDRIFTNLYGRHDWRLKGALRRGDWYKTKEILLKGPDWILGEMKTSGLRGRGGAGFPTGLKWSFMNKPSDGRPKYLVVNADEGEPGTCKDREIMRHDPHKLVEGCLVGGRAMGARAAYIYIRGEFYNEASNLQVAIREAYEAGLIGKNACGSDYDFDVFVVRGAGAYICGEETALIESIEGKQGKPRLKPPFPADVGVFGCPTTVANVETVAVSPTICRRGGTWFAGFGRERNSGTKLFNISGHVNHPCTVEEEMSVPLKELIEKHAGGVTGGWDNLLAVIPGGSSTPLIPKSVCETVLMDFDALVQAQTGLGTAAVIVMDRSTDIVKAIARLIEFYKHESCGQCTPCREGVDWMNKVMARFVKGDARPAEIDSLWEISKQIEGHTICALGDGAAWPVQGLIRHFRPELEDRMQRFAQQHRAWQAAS

SMILES | IC50 [nM]
C/C=C(\C)[C@H](O)[C@H](C)/C=C(C)/C=C/C/C(C)=C/Cc1nc(OC)c(OC)c(O)c1C [piericidin A] | 10
C=C(C)[C@H]1Cc2c(ccc3c2O[C@@H]2COc4cc(OC)c(OC)cc4[C@@H]2C3=O)O1 [rotenone] | 20

From paper PMC3051820 (The Journal of Cell Biology, 2011)
